Experimental data as given in the supplement of paper PMC11061612.

Experiments:
Test in all cases: combination Emax (second highest fraction inhibited in the dose matrix, 72 h); higher = more inhibition; extreme values may be limits of the assay
[1] = tested on: EVSA-T (Breast Carcinoma)
Outline: (§1)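 Bliss excess equals the observed combination effect minus the expected value EA + EB − EA·EB, where EA and EB are the effects of each agent alone. Combination Emax is the second-highest inhibition within the matrix. Inhibition was scaled from CellTiter-Glo 2.0 luminescence, with 0 set by vehicle wells and 1 by blank wells, after 72 hours of two-drug dosing of cells plated in 1536-well plates.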

ES8 (Ewing's Sarcoma) = tested on: ES8 (Ewing's Sarcoma)
Outline: as §1

TC-71 (Ewing's Sarcoma) = tested on: TC-71 (Ewing's Sarcoma)
Outline: as §1

[2] = tested on: DiFi (Colorectal Carcinoma)
Outline: as §1

[3] = tested on: KYSE-180 (Esophageal Squamous Cell Carcinoma)
Outline: as §1

[4] = tested on: HDQ-P1 (Breast Carcinoma)
Outline: as §1

NCI-H2818 (Mesothelioma) = tested on: NCI-H2818 (Mesothelioma)
Outline: as §1

[5] = tested on: TE-6 (Esophageal Squamous Cell Carcinoma)
Outline: as §1

[6] = tested on: NCI-H847 (Small Cell Lung Carcinoma)
Outline: as §1

[7] = tested on: GR-ST (B-Lymphoblastic Leukemia)
Outline: as §1

[8] = tested on: SW837 (Colorectal Carcinoma)
Outline: as §1

ES1 (Ewing's Sarcoma) = tested on: ES1 (Ewing's Sarcoma)
Outline: as §1

[9] = tested on: MKN28 (Gastric Carcinoma)
Outline: as §1

U251 (Low Grade Glioma) = tested on: U251 (Low Grade Glioma)
Outline: as §1

[10] = tested on: K-562 (Chronic Myelogenous Leukemia)
Outline: as §1

WIL2-NS (Non-Cancerous) = tested on: WIL2-NS (Non-Cancerous)
Outline: as §1

MEL-JUSO (Melanoma) = tested on: MEL-JUSO (Melanoma)
Outline: as §1

LN-18 (Glioblastoma) = tested on: LN-18 (Glioblastoma)
Outline: as §1

WM-115 (Melanoma) = tested on: WM-115 (Melanoma)
Outline: as §1

| SMILES | combination Emax [1] | combination Emax (ES8 (Ewing's Sarcoma)) | combination Emax (TC-71 (Ewing's Sarcoma)) | combination Emax [2] | combination Emax [3] | combination Emax [4] | combination Emax (NCI-H2818 (Mesothelioma)) | combination Emax [5] | combination Emax [6] | combination Emax [7] | combination Emax [8] | combination Emax (ES1 (Ewing's Sarcoma)) | combination Emax [9] | combination Emax (U251 (Low Grade Glioma)) | combination Emax [10] | combination Emax (WIL2-NS (Non-Cancerous)) | combination Emax (MEL-JUSO (Melanoma)) | combination Emax (LN-18 (Glioblastoma)) | combination Emax (WM-115 (Melanoma)) |
| --- | --- | --- | --- | --- | --- | --- | --- | --- | --- | --- | --- | --- | --- | --- | --- | --- | --- | --- | --- |
| CN(C)CCCOc1ccc(-c2ccc3ncc4c(c3c2)n(C2CCOCC2)c(=O)n4C)cn1 [AZD0156] + C=CCn1c(=O)c2cnc(Nc3ccc(N4CCN(C)CC4)cc3)nc2n1-c1cccc(C(C)(C)O)n1 [AZD1775] (first compound max 1 µM, partner max 1 µM) | 0.221 | 0.646 | 0.452 | 0.637 | 0.749 | 0.469 | 0.327 | 0.232 | 0.971 | 0.78 | 0.237 | 0.682 | 0.481 | 0.398 | 0.715 | 0.976 | 0.486 | 0.291 | 0.254 |
| CN(C)CCCOc1ccc(-c2ccc3ncc4c(c3c2)n(C2CCOCC2)c(=O)n4C)cn1 [AZD0156] + CCN(CCO)CCCOc1ccc2c(Nc3cc(CC(=O)Nc4cccc(F)c4)[nH]n3)ncnc2c1 [AZD2811] (first compound max 1 µM, 7x7, partner max 1 µM) | 0.269 | 1 | 0.837 | 0.416 | 0.0693 | 0.211 | 0.16 | 0.236 | 0.949 | 0.276 | 0.0741 | 0.69 | 0.135 | 0.179 | 0.23 | 0.201 | 0.16 | 0.33 | 0.183 |
| CN(C)CCCOc1ccc(-c2ccc3ncc4c(c3c2)n(C2CCOCC2)c(=O)n4C)cn1 [AZD0156] + C[C@@H]1COCCN1C2=NC(=NC(=C2)C3(CC3)[S@](=N)(=O)C)C4=C5C=CNC5=NC=C4 [AZD6738] (first compound max 1 µM, 7x7, partner max 10 µM) | 0.495 | 0.799 | 0.952 | 0.829 | 0.915 | 0.381 | 0.324 | 0.636 | 0.956 | 0.715 | 0.466 | 0.956 | 0.471 | 0.584 | 0.9 | 0.988 | 0.525 | 0.725 | 0.488 |
| C=CCn1c(=O)c2cnc(Nc3ccc(N4CCN(C)CC4)cc3)nc2n1-c1cccc(C(C)(C)O)n1 [AZD1775] + C[C@@H]1COCCN1C2=NC(=NC(=C2)C3(CC3)[S@](=N)(=O)C)C4=C5C=CNC5=NC=C4 [AZD6738] (first compound max 1 µM, partner max 10 µM) | 0.483 | 0.905 | 0.941 | 0.895 | 0.939 | 0.76 | 0.475 | 0.669 | 1 | 0.78 | 0.636 | 0.948 | 0.695 | 0.773 | 0.934 | 1 | 0.496 | 0.736 | 0.595 |
| C=CCn1c(=O)c2cnc(Nc3ccc(N4CCN(C)CC4)cc3)nc2n1-c1cccc(C(C)(C)O)n1 [AZD1775] + O=C(c1cc(Cc2n[nH]c(=O)c3ccccc23)ccc1F)N1CCN(C(=O)C2CC2)CC1 [Olaparib] (first compound max 1 µM, partner max 10 µM) | 0.289 | 0.829 | 0.583 | 0.678 | 0.774 | 0.517 | 0.415 | 0.319 | 1 | 0.806 | 0.39 | 0.838 | 0.573 | 0.442 | 0.845 | 0.931 | 0.401 | 0.217 | 0.259 |
| CCN(CCO)CCCOc1ccc2c(Nc3cc(CC(=O)Nc4cccc(F)c4)[nH]n3)ncnc2c1 [AZD2811] + C=CCn1c(=O)c2cnc(Nc3ccc(N4CCN(C)CC4)cc3)nc2n1-c1cccc(C(C)(C)O)n1 [AZD1775] (first compound max 1 µM, partner max 1 µM) | 0.257 | 1 | 0.857 | 0.671 | 0.726 | 0.522 | 0.276 | 0.236 | 1 | 0.789 | 0.15 | 0.779 | 0.5 | 0.266 | 0.811 | 0.944 | 0.333 | 0.458 | 0.193 |
| CCN(CCO)CCCOc1ccc2c(Nc3cc(CC(=O)Nc4cccc(F)c4)[nH]n3)ncnc2c1 [AZD2811] + C[C@@H]1COCCN1C2=NC(=NC(=C2)C3(CC3)[S@](=N)(=O)C)C4=C5C=CNC5=NC=C4 [AZD6738] (first compound max 1 µM, 7x7, partner max 10 µM) | 0.289 | 1 | 0.94 | 0.819 | 0.823 | 0.391 | 0.405 | 0.543 | 1 | 0.732 | 0.361 | 0.948 | 0.519 | 0.533 | 0.881 | 0.979 | 0.357 | 0.585 | 0.523 |
| CCN(CCO)CCCOc1ccc2c(Nc3cc(CC(=O)Nc4cccc(F)c4)[nH]n3)ncnc2c1 [AZD2811] + O=C(c1cc(Cc2n[nH]c(=O)c3ccccc23)ccc1F)N1CCN(C(=O)C2CC2)CC1 [Olaparib] (first compound max 1 µM, 7x7, partner max 10 µM) | 0.31 | 0.997 | 0.755 | 0.516 | 0.176 | 0.264 | 0.234 | 0.212 | 0.956 | 0.448 | 0.183 | 0.855 | 0.238 | 0.273 | 0.366 | 0.397 | 0.243 | 0.287 | 0.259 |
| C[C@@H]1COCCN1c1cc(C2([S@](C)(=N)=O)CC2)nc(-c2ccnc3[nH]ccc23)n1 [AZD6738] + O=C(c1cc(Cc2n[nH]c(=O)c3ccccc23)ccc1F)N1CCN(C(=O)C2CC2)CC1 [Olaparib] (first compound max 10 µM, 7x7, partner max 10 µM) | 0.346 | 0.895 | 0.887 | 0.775 | 0.76 | 0.512 | 0.45 | 0.498 | 0.978 | 0.803 | 0.343 | 0.99 | 0.484 | 0.661 | 0.811 | 0.968 | 0.418 | 0.877 | 0.518 |
| Cc1cc2ncnn2cc1Nc1ncc2c(n1)n(C1CCOCC1)c(=O)n2C [AZD7648] + C=CCn1c(=O)c2cnc(Nc3ccc(N4CCN(C)CC4)cc3)nc2n1-c1cccc(C(C)(C)O)n1 [AZD1775] (first compound max 10 µM, partner max 1 µM) | 0.291 | 0.691 | 0.496 | 0.821 | 0.778 | 0.567 | 0.462 | 0.363 | 1 | 0.772 | 0.292 | 0.639 | 0.668 | 0.319 | 0.645 | 0.954 | 0.494 | 0.366 | 0.469 |
| Cc1cc2ncnn2cc1Nc1ncc2c(n1)n(C1CCOCC1)c(=O)n2C [AZD7648] + CCN(CCO)CCCOc1ccc2c(Nc3cc(CC(=O)Nc4cccc(F)c4)[nH]n3)ncnc2c1 [AZD2811] (first compound max 10 µM, 7x7, partner max 1 µM) | 0.327 | 1 | 0.793 | 0.584 | 0.207 | 0.423 | 0.434 | 0.313 | 0.971 | 0.466 | 0.192 | 0.724 | 0.309 | 0.233 | 0.202 | 0.215 | 0.258 | 0.393 | 0.42 |
| Cc1cc2ncnn2cc1Nc1ncc2c(n1)n(C1CCOCC1)c(=O)n2C [AZD7648] + CN(C)CCCOc1ccc(-c2ccc3ncc4c(c3c2)n(C2CCOCC2)c(=O)n4C)cn1 [AZD0156] (first compound max 10 µM, 7x7, partner max 1 µM) | 0.28 | 0.408 | 0.246 | 0.273 | 0.168 | 0.403 | 0.368 | 0.363 | 0.663 | 0.489 | 0.154 | 0.478 | 0.287 | 0.196 | 0.2 | 0.395 | 0.169 | 0.17 | 0.328 |
| Cc1cc2ncnn2cc1Nc1ncc2c(n1)n(C1CCOCC1)c(=O)n2C [AZD7648] + C[C@@H]1COCCN1C2=NC(=NC(=C2)C3(CC3)[S@](=N)(=O)C)C4=C5C=CNC5=NC=C4 [AZD6738] (first compound max 10 µM, 7x7, partner max 10 µM) | 0.323 | 0.798 | 0.835 | 0.842 | 0.867 | 0.468 | 0.43 | 0.553 | 1 | 0.743 | 0.39 | 0.913 | 0.514 | 0.353 | 0.892 | 0.979 | 0.419 | 0.272 | 0.571 |
| CCc1c2c(nc3ccc(O)cc13)-c1cc3c(c(=O)n1C2)COC(=O)[C@]3(O)CC [SN-38] + O=C(c1cc(Cc2n[nH]c(=O)c3ccccc23)ccc1F)N1CCN(C(=O)C2CC2)CC1 [Olaparib] (first compound max 0.3 µM, 7x7, partner max 10 µM) | 0.784 | 0.989 |  | 0.701 | 0.527 | 0.702 | 0.359 |  | 1 | 0.74 | 0.506 | 1 | 0.553 |  | 0.672 | 1 |  |  | 0.391 |
